Test results from the supplement of paper PMC10307832.

Experiments:
Assay in all cases: relative viability (nuclei count vs DMSO), 5 days (fraction); higher = more cells survive
BX 795 = compound: O=C(NCCCNc1nc(Nc2cccc(NC(=O)N3CCCC3)c2)ncc1I)c1cccs1 [BX 795]
In short: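 Lung cancer cell lines received five library-drug doses (not always all listed) spaced by √10, pinned on vehicle-anchored 1536-well plates after an overnight stay at 37 °C. Five days later, with no medium change, nuclei were Hoechst-stained, imaged at 4× and counted with MetaXpress. Viability is treated-well nuclei relative to vehicle-well nuclei, as a median across plates. Passing plates had control CV below 25% and at least one doubling.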

BX 795 + Phenformin = compound: O=C(NCCCNc1nc(Nc2cccc(NC(=O)N3CCCC3)c2)ncc1I)c1cccs1 [BX 795] + N=C(N)NC(=N)NCCc1ccccc1 [Phenformin] (partner 250 µM)
In short: (§1)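 Relative viability equals treated-well nuclei counts divided by vehicle-well nuclei counts. Counts came from 4× images of lung cancer cell lines grown in 1536-well plates for 5 days after pin-tool dosing on the day after seeding. Dosing used one drug alone or a fixed anchor-drug dose plus five library-drug doses (not always all listed) in √10 steps, and values are medians of duplicate plates.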

BX 795 + Alpelisib = compound: O=C(NCCCNc1nc(Nc2cccc(NC(=O)N3CCCC3)c2)ncc1I)c1cccs1 [BX 795] + Cc1nc(NC(=O)N2CCC[C@H]2C(N)=O)sc1-c1ccnc(C(C)(C)C(F)(F)F)c1 [Alpelisib] (partner 2 µM)
In short: as §1

BX 795 + Pictilisib = compound: O=C(NCCCNc1nc(Nc2cccc(NC(=O)N3CCCC3)c2)ncc1I)c1cccs1 [BX 795] + CS(=O)(=O)N1CCN(Cc2cc3nc(-c4cccc5[nH]ncc45)nc(N4CCOCC4)c3s2)CC1 [Pictilisib] (partner 1 µM)
In short: as §1

BX 795 + Lapatinib = compound: O=C(NCCCNc1nc(Nc2cccc(NC(=O)N3CCCC3)c2)ncc1I)c1cccs1 [BX 795] + CS(=O)(=O)CCNCc1ccc(-c2ccc3ncnc(Nc4ccc(OCc5cccc(F)c5)c(Cl)c4)c3c2)o1 [Lapatinib] (partner 2 µM)
In short: as §1

BX 795 + Bortezomib = compound: O=C(NCCCNc1nc(Nc2cccc(NC(=O)N3CCCC3)c2)ncc1I)c1cccs1 [BX 795] + CC(C)C[C@H](NC(=O)[C@H](Cc1ccccc1)NC(=O)c1cnccn1)B(O)O [Bortezomib] (partner 0.002 µM)
In short: as §1

BX 795 + OSI-027 = compound: O=C(NCCCNc1nc(Nc2cccc(NC(=O)N3CCCC3)c2)ncc1I)c1cccs1 [BX 795] + COc1cccc2cc(-c3nc([C@H]4CC[C@H](C(=O)O)CC4)n4ncnc(N)c34)[nH]c12 [OSI-027] (partner 0.5 µM)
In short: as §1

BX 795 + Pemetrexed = compound: O=C(NCCCNc1nc(Nc2cccc(NC(=O)N3CCCC3)c2)ncc1I)c1cccs1 [BX 795] + Nc1nc2[nH]cc(CCc3ccc(C(=O)N[C@@H](CCC(=O)O)C(=O)O)cc3)c2c(=O)[nH]1 [Pemetrexed] (partner 0.2 µM)
In short: as §1

BX 795 + Linsitinib = compound: O=C(NCCCNc1nc(Nc2cccc(NC(=O)N3CCCC3)c2)ncc1I)c1cccs1 [BX 795] + C[C@]1(O)C[C@@H](c2nc(-c3ccc4ccc(-c5ccccc5)nc4c3)c3c(N)nccn32)C1 [Linsitinib] (partner 1 µM)
In short: as §1

BX 795 + Crizotinib = compound: O=C(NCCCNc1nc(Nc2cccc(NC(=O)N3CCCC3)c2)ncc1I)c1cccs1 [BX 795] + C[C@@H](Oc1cc(-c2cnn(C3CCNCC3)c2)cnc1N)c1c(Cl)ccc(F)c1Cl [Crizotinib] (partner 1 µM)
In short: as §1

BX 795 + Dasatinib = compound: O=C(NCCCNc1nc(Nc2cccc(NC(=O)N3CCCC3)c2)ncc1I)c1cccs1 [BX 795] + Cc1nc(Nc2ncc(C(=O)Nc3c(C)cccc3Cl)s2)cc(N2CCN(CCO)CC2)n1 [Dasatinib] (partner 0.075 µM)
In short: as §1

BX 795 + Foretinib = compound: O=C(NCCCNc1nc(Nc2cccc(NC(=O)N3CCCC3)c2)ncc1I)c1cccs1 [BX 795] + COc1cc2c(Oc3ccc(NC(=O)C4(C(=O)Nc5ccc(F)cc5)CC4)cc3F)ccnc2cc1OCCCN1CCOCC1 [Foretinib] (partner 0.25 µM)
In short: as §1

BX 795 + Luminespib = compound: O=C(NCCCNc1nc(Nc2cccc(NC(=O)N3CCCC3)c2)ncc1I)c1cccs1 [BX 795] + CCNC(=O)c1noc(-c2cc(C(C)C)c(O)cc2O)c1-c1ccc(CN2CCOCC2)cc1 [Luminespib] (partner 0.01 µM)
In short: as §1

NCI-H1563
relative viability (BX 795; 0.04 µM): 1.08
relative viability (BX 795; 0.1265 µM): 0.942
relative viability (BX 795; 0.4 µM): 1.03
relative viability (BX 795; 1.265 µM): 0.814
relative viability (BX 795 + Phenformin; first compound 0.04 µM): 0.679
relative viability (BX 795 + Phenformin; first compound 0.1265 µM): 0.641
relative viability (BX 795 + Phenformin; first compound 0.4 µM): 0.744
relative viability (BX 795 + Phenformin; first compound 1.265 µM): 0.567
relative viability (BX 795 + Alpelisib; first compound 0.04 µM): 0.964
relative viability (BX 795 + Alpelisib; first compound 0.1265 µM): 0.859
relative viability (BX 795 + Alpelisib; first compound 0.4 µM): 0.917
relative viability (BX 795 + Alpelisib; first compound 1.265 µM): 0.811
relative viability (BX 795 + Pictilisib; first compound 0.04 µM): 0.689
relative viability (BX 795 + Pictilisib; first compound 0.1265 µM): 0.522
relative viability (BX 795 + Pictilisib; first compound 0.4 µM): 0.659
relative viability (BX 795 + Pictilisib; first compound 1.265 µM): 0.673
relative viability (BX 795 + Lapatinib; first compound 0.04 µM): 1.01
relative viability (BX 795 + Lapatinib; first compound 0.1265 µM): 1.01
relative viability (BX 795 + Lapatinib; first compound 0.4 µM): 1.05
relative viability (BX 795 + Lapatinib; first compound 1.265 µM): 0.785
relative viability (BX 795 + Bortezomib; first compound 0.04 µM): 0.822
relative viability (BX 795 + Bortezomib; first compound 0.1265 µM): 0.844
relative viability (BX 795 + Bortezomib; first compound 0.4 µM): 0.993
relative viability (BX 795 + Bortezomib; first compound 1.265 µM): 0.752
relative viability (BX 795 + OSI-027; first compound 0.04 µM): 0.782
relative viability (BX 795 + OSI-027; first compound 0.1265 µM): 0.749
relative viability (BX 795 + OSI-027; first compound 0.4 µM): 0.821
relative viability (BX 795 + OSI-027; first compound 1.265 µM): 0.67
relative viability (BX 795 + Pemetrexed; first compound 0.04 µM): 0.977
relative viability (BX 795 + Pemetrexed; first compound 0.1265 µM): 0.759
relative viability (BX 795 + Pemetrexed; first compound 0.4 µM): 0.857
relative viability (BX 795 + Pemetrexed; first compound 1.265 µM): 0.746
relative viability (BX 795 + Linsitinib; first compound 0.04 µM): 1.36
relative viability (BX 795 + Linsitinib; first compound 0.1265 µM): 1.23
relative viability (BX 795 + Linsitinib; first compound 0.4 µM): 1.3
relative viability (BX 795 + Linsitinib; first compound 1.265 µM): 0.905
relative viability (BX 795 + Crizotinib; first compound 0.04 µM): 0.852
relative viability (BX 795 + Crizotinib; first compound 0.1265 µM): 0.849
relative viability (BX 795 + Crizotinib; first compound 0.4 µM): 0.82
relative viability (BX 795 + Crizotinib; first compound 1.265 µM): 0.617
relative viability (BX 795 + Dasatinib; first compound 0.04 µM): 0.476
relative viability (BX 795 + Dasatinib; first compound 0.1265 µM): 0.429
relative viability (BX 795 + Dasatinib; first compound 0.4 µM): 0.439
relative viability (BX 795 + Dasatinib; first compound 1.265 µM): 0.405
relative viability (BX 795 + Foretinib; first compound 0.04 µM): 0.914
relative viability (BX 795 + Foretinib; first compound 0.1265 µM): 1.04
relative viability (BX 795 + Foretinib; first compound 0.4 µM): 0.925
relative viability (BX 795 + Foretinib; first compound 1.265 µM): 0.848
relative viability (BX 795 + Luminespib; first compound 0.04 µM): 0.593
relative viability (BX 795 + Luminespib; first compound 0.1265 µM): 0.472
relative viability (BX 795 + Luminespib; first compound 0.4 µM): 0.47
relative viability (BX 795 + Luminespib; first compound 1.265 µM): 0.447
